In ChEMBL document CHEMBL1201861, “Genomics of Drug Sensitity in Cancer screening data, Wellcome Trust Sanger Institute”:

Columns and labels:
Experiment in all cases: cells
COR-L105 = format: functional, cell-based, Homo sapiens; settings: Homo sapiens, COR-L105;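 also: cell growth inhibition determined with a viability assay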
Description: SANGER: Inhibition of human COR-L105 cell growth in a cell viability assay.

CAMA-1 = format: functional, cell-based, Homo sapiens; settings: Homo sapiens, CAMA-1;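 also: growth inhibition of CAMA-1 cells, read out with a cell viability assay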
Description: SANGER: Inhibition of human CAMA-1 cell growth in a cell viability assay.

LN-405 = format: functional, cell-based, Homo sapiens; settings: Homo sapiens, LN-405
Description: SANGER: Inhibition of human LN-405 cell growth in a cell viability assay.

BEN = format: functional, cell-based, Homo sapiens; settings: Homo sapiens, BEN;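 also: growth inhibition of the BEN cell line, read out with a cell viability assay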
Description: SANGER: Inhibition of human BEN cell growth in a cell viability assay.

Mo = format: functional, cell-based; settings: Homo sapiens
Description: SANGER: Inhibition of human Mo-T cell growth in a cell viability assay.

BT-474 = format: functional, cell-based, Homo sapiens; settings: Homo sapiens, BT-474
Description: SANGER: Inhibition of human BT-474 cell growth in a cell viability assay.

Hs-578T = format: functional, cell-based, Homo sapiens; settings: Homo sapiens, Hs-578T
Description: SANGER: Inhibition of human Hs-578-T cell growth in a cell viability assay.

EC-GI-10 = format: functional, cell-based, Homo sapiens; settings: Homo sapiens, EC-GI-10
Description: SANGER: Inhibition of human EC-GI-10 cell growth in a cell viability assay.

HSC-3 = format: functional, cell-based, Homo sapiens; settings: Homo sapiens, HSC-3
Description: SANGER: Inhibition of human HSC-3 cell growth in a cell viability assay.

RERF-LC-MS = format: functional, cell-based, Homo sapiens; settings: Homo sapiens, RERF-LC-MS;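 also: growth inhibition of human RERF-LC-MS cells, read out by a cell viability assay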
Description: SANGER: Inhibition of human RERF-LC-MS cell growth in a cell viability assay.

CAL-54 = format: functional, cell-based, Homo sapiens; settings: Homo sapiens, CAL-54;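 also: growth inhibition of CAL-54 cells, read out by a viability measurement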
Description: SANGER: Inhibition of human CAL-54 cell growth in a cell viability assay.

HT-1376 = format: functional, cell-based, Homo sapiens; settings: Homo sapiens, HT-1376
Description: SANGER: Inhibition of human HT-1376 cell growth in a cell viability assay.

SK-MEL3 = format: functional, cell-based, Homo sapiens, SK-MEL-3; settings: Homo sapiens, SK-MEL3;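 also: growth inhibition of human SK-MEL-3 cells, read out with a cell viability assay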
Description: SANGER: Inhibition of human SK-MEL-3 cell growth in a cell viability assay.

C3A = format: functional, cell-based, Homo sapiens; settings: Homo sapiens, C3A;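 also: growth inhibition of C3A human cells, quantified with a cell viability readout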
Description: SANGER: Inhibition of human C3A cell growth in a cell viability assay.

A673 = format: functional, cell-based, Homo sapiens; settings: Homo sapiens, A673;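 also: growth inhibition of human A673 cells, read out through a cell viability assay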
Description: SANGER: Inhibition of human A673 cell growth in a cell viability assay.

PANC-03-27 = format: functional, cell-based, Homo sapiens; settings: Homo sapiens, PANC-03-27
Description: SANGER: Inhibition of human PANC-03-27 cell growth in a cell viability assay.

NCI-H2030 = format: functional, cell-based, Homo sapiens; settings: Homo sapiens, NCI-H2030;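 also: growth inhibition of human NCI-H2030 cells, read out by a cell viability assay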
Description: SANGER: Inhibition of human NCI-H2030 cell growth in a cell viability assay.

LU-99A = format: functional, cell-based, Homo sapiens; settings: Homo sapiens, LU-99A;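 also: growth inhibition of LU-99A cells, read out with a cell viability assay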
Description: SANGER: Inhibition of human LU-99A cell growth in a cell viability assay.

SN12C = format: functional, cell-based, Homo sapiens; settings: Homo sapiens, SN12C;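 also: growth inhibition of human SN12C cells, measured by a cell viability assay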
Description: SANGER: Inhibition of human SN12C cell growth in a cell viability assay.

COLO-679 = format: functional, cell-based, Homo sapiens; settings: Homo sapiens, COLO-679
Description: SANGER: Inhibition of human COLO-679 cell growth in a cell viability assay.

D-392MG = format: functional, cell-based, Homo sapiens; settings: Homo sapiens, D-392MG
C-33-A = format: functional, cell-based, Homo sapiens; settings: Homo sapiens, C-33-A;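 also: cell viability assay measuring growth inhibition of C-33-A cells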
Description: SANGER: Inhibition of human C-33-A cell growth in a cell viability assay.

DMS-79 = format: functional, cell-based; settings: Homo sapiens;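 also: growth inhibition measured with a cell viability assay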
Description: SANGER: Inhibition of human DMS-79 cell growth in a cell viability assay.

A498 = format: functional, cell-based, Homo sapiens; settings: Homo sapiens, A498;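 also: growth inhibition of human A498 cells, read out with a cell viability assay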
Description: SANGER: Inhibition of human A498 cell growth in a cell viability assay.

NCI-H226 = format: functional, cell-based, Homo sapiens; settings: Homo sapiens, NCI-H226;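 also: cell viability read-out used to gauge growth inhibition of the cells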
Description: SANGER: Inhibition of human NCI-H226 cell growth in a cell viability assay.

CAL-27 = format: functional, cell-based, Homo sapiens; settings: Homo sapiens, CAL-27;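 also: Viability-based readout, IC50 reflecting inhibition of CAL-27 cell growth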
Description: SANGER: Inhibition of human CAL-27 cell growth in a cell viability assay.

MDA-MB-361 = format: functional, cell-based, Homo sapiens; settings: Homo sapiens, MDA-MB-361
Calu-3 = format: functional, cell-based, Homo sapiens; settings: Homo sapiens, Calu-3;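 also: growth inhibition of human Calu-3 cells, determined with a cell viability assay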
Description: SANGER: Inhibition of human Calu-3 cell growth in a cell viability assay.

no-10 = format: functional, cell-based, Homo sapiens; settings: Homo sapiens;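 also: growth inhibition of no-10 cells, read out with a cell viability assay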
Description: SANGER: Inhibition of human no-10 cell growth in a cell viability assay.

SW13 = format: functional, cell-based, Homo sapiens; settings: Homo sapiens, SW13;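 also: IC50 is inhibition of SW13 cell growth, read out with a cell viability assay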
Description: SANGER: Inhibition of human SW13 cell growth in a cell viability assay.

NCI-H596 = format: functional, cell-based, Homo sapiens; settings: Homo sapiens, NCI-H596;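 also: growth inhibition of NCI-H596 cells, read out with a cell viability assay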
Description: SANGER: Inhibition of human NCI-H596 cell growth in a cell viability assay.

8305C = format: functional, cell-based, Homo sapiens; settings: Homo sapiens, 8305C
Description: SANGER: Inhibition of human 8305C cell growth in a cell viability assay.

HLE = format: functional, cell-based, Homo sapiens; settings: Homo sapiens, HLE;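 also: growth inhibition of human HLE cells, read out by a cell viability assay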
Description: SANGER: Inhibition of human HLE cell growth in a cell viability assay.

PC-14 = format: functional, cell-based, Homo sapiens; settings: Homo sapiens, PC-14;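 also: cell viability assay measuring inhibition of PC-14 cell growth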
Description: SANGER: Inhibition of human PC-14 cell growth in a cell viability assay.

EKVX = format: functional, cell-based, Homo sapiens; settings: Homo sapiens, EKVX;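 also: growth inhibition of human EKVX cells, read out with a cell viability assay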
Description: SANGER: Inhibition of human EKVX cell growth in a cell viability assay.

NCI-H2052 = format: functional, cell-based, Homo sapiens; settings: Homo sapiens, NCI-H2052;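 also: growth inhibition of NCI-H2052 cells, read out with a cell viability assay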
Description: SANGER: Inhibition of human NCI-H2052 cell growth in a cell viability assay.

SNB-75 = format: functional, cell-based, Homo sapiens; settings: Homo sapiens, SNB-75;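 also: cell viability assay measuring growth inhibition of human SNB-75 cells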
Description: SANGER: Inhibition of human SNB75 cell growth in a cell viability assay.

SW1088 = format: functional, cell-based, Homo sapiens; settings: Homo sapiens, SW1088;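 also: growth inhibition of human SW1088 cells, read out by a cell viability assay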
Description: SANGER: Inhibition of human SW1088 cell growth in a cell viability assay.

QIMR-WIL = format: functional, cell-based; settings: Homo sapiens;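 also: growth inhibition of QIMR-WIL cells, read out with a cell viability assay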
Description: SANGER: Inhibition of human QIMR-WIL cell growth in a cell viability assay.

SW1417 = format: functional, cell-based, Homo sapiens; settings: Homo sapiens, SW1417;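 also: growth inhibition of human SW1417 cells, read out with a cell viability assay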
Description: SANGER: Inhibition of human SW1417 cell growth in a cell viability assay.

TGBC24TKB = format: functional, cell-based, Homo sapiens; settings: Homo sapiens, TGBC24TKB;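 also: growth inhibition of human TGBC24TKB cells, read out with a cell viability assay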
Description: SANGER: Inhibition of human TGBC24TKB cell growth in a cell viability assay.

EW-24 = format: functional, cell-based; settings: Homo sapiens;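 also: human EW-24 cancer cell line, growth inhibition read out via a cell viability assay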
Description: SANGER: Inhibition of human EW-24 cell growth in a cell viability assay.

TCC-SUP = format: functional, cell-based, Homo sapiens; settings: Homo sapiens, TCC-SUP;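 also: growth inhibition of TCC-SUP cells, read out with a cell viability assay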
Description: SANGER: Inhibition of human TCCSUP cell growth in a cell viability assay.

SK-HEP1 = format: functional, cell-based, Homo sapiens, SK-HEP-1; settings: Homo sapiens, SK-HEP1;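 also: cell viability readout used to quantify reduction in proliferation of human SK-HEP-1 cells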
Description: SANGER: Inhibition of human SK-HEP-1 cell growth in a cell viability assay.

A-431 = format: functional, cell-based, Homo sapiens; settings: Homo sapiens, A-431;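 also: growth inhibition of A-431 cells, determined with a cell viability read-out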
Description: SANGER: Inhibition of human A431 cell growth in a cell viability assay.

MSTO-211H = format: functional, cell-based, Homo sapiens; settings: Homo sapiens, MSTO-211H
Description: SANGER: Inhibition of human MSTO-211H cell growth in a cell viability assay.

DK-MG = format: functional, cell-based, Homo sapiens; settings: Homo sapiens, DK-MG;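 also: growth inhibition of DK-MG cells, read out with a cell viability assay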
Description: SANGER: Inhibition of human DK-MG cell growth in a cell viability assay.

D-336MG = format: functional, cell-based, Homo sapiens; settings: Homo sapiens, D-336MG
Description: SANGER: Inhibition of human D-336MG cell growth in a cell viability assay.

EW-1 = format: functional, cell-based, Homo sapiens; settings: Homo sapiens, EW-1;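 also: growth inhibition of the human EW-1 cell line, read out by a cell viability assay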
Description: SANGER: Inhibition of human EW-1 cell growth in a cell viability assay.

MDA-MB-415 = format: functional, cell-based; settings: Homo sapiens

CN(Cc1cnc2nc(N)nc(N)c2n1)c1ccc(C(=O)N[C@@H](CCC(=O)O)C(=O)O)cc1 [METHOTREXATE]
IC50 (COR-L105): > 200 nM
IC50 (CAMA-1): > 200 nM
IC50 (LN-405): > 200 nM
IC50 (BEN): > 200 nM
IC50 (Mo): > 200 nM
IC50 (BT-474): > 200 nM
IC50 (Hs-578T): > 200 nM
IC50 (EC-GI-10): > 200 nM
IC50 (HSC-3): > 200 nM
IC50 (RERF-LC-MS): > 200 nM
IC50 (CAL-54): > 200 nM
IC50 (HT-1376): > 200 nM
IC50 (SK-MEL3): > 200 nM
IC50 (C3A): > 200 nM
IC50 (A673): > 200 nM
IC50 (PANC-03-27): > 200 nM
IC50 (NCI-H2030): > 200 nM
IC50 (LU-99A): > 200 nM
IC50 (SN12C): > 200 nM
IC50 (COLO-679): > 200 nM
IC50 (D-392MG): 158 nM
IC50 (C-33-A): > 200 nM
IC50 (DMS-79): > 200 nM
IC50 (A498): > 200 nM
IC50 (NCI-H226): > 200 nM
IC50 (CAL-27): > 200 nM
IC50 (MDA-MB-361): > 200 nM
IC50 (Calu-3): > 200 nM
IC50 (no-10): > 200 nM
IC50 (SW13): > 200 nM
IC50 (NCI-H596): > 200 nM
IC50 (8305C): 196 nM
IC50 (HLE): > 200 nM
IC50 (PC-14): > 200 nM
IC50 (EKVX): > 200 nM
IC50 (NCI-H2052): > 200 nM
IC50 (SNB-75): > 200 nM
IC50 (SW1088): > 200 nM
IC50 (QIMR-WIL): 139 nM
IC50 (SW1417): > 200 nM
IC50 (TGBC24TKB): > 200 nM
IC50 (EW-24): > 200 nM
IC50 (TCC-SUP): > 200 nM
IC50 (SK-HEP1): > 200 nM
IC50 (A-431): > 200 nM
IC50 (MSTO-211H): > 200 nM
IC50 (DK-MG): > 200 nM
IC50 (D-336MG): > 200 nM
IC50 (EW-1): 168 nM
IC50 (MDA-MB-415): > 200 nM

O=C(c1cc(Cc2n[nH]c(=O)c3ccccc23)ccc1F)N1CCN(C(=O)C2CC2)CC1 [OLAPARIB]
IC50 (COR-L105): > 5000 nM
IC50 (CAMA-1): > 5000 nM
IC50 (LN-405): > 5000 nM
IC50 (BEN): > 5000 nM
IC50 (Mo): > 5000 nM
IC50 (BT-474): > 5000 nM
IC50 (Hs-578T): > 5000 nM
IC50 (EC-GI-10): > 5000 nM
IC50 (HSC-3): > 5000 nM
IC50 (RERF-LC-MS): > 5000 nM
IC50 (CAL-54): > 5000 nM
IC50 (HT-1376): > 5000 nM
IC50 (SK-MEL3): > 5000 nM
IC50 (C3A): > 5000 nM
IC50 (A673): > 5000 nM
IC50 (PANC-03-27): > 5000 nM
IC50 (NCI-H2030): > 5000 nM
IC50 (LU-99A): > 5000 nM
IC50 (SN12C): > 5000 nM
IC50 (COLO-679): > 5000 nM
IC50 (D-392MG): > 5000 nM
IC50 (C-33-A): > 5000 nM
IC50 (DMS-79): > 5000 nM
IC50 (A498): > 5000 nM
IC50 (NCI-H226): > 5000 nM
IC50 (CAL-27): > 5000 nM
IC50 (MDA-MB-361): > 5000 nM
IC50 (Calu-3): > 5000 nM
IC50 (no-10): > 5000 nM
IC50 (SW13): > 5000 nM
IC50 (NCI-H596): > 5000 nM
IC50 (8305C): > 5000 nM
IC50 (HLE): > 5000 nM
IC50 (PC-14): > 5000 nM
IC50 (EKVX): > 5000 nM
IC50 (NCI-H2052): > 5000 nM
IC50 (SNB-75): > 5000 nM
IC50 (SW1088): > 5000 nM
IC50 (QIMR-WIL): > 5000 nM
IC50 (SW1417): > 5000 nM
IC50 (TGBC24TKB): > 5000 nM
IC50 (EW-24): > 5000 nM
IC50 (TCC-SUP): > 5000 nM
IC50 (SK-HEP1): > 5000 nM
IC50 (A-431): > 5000 nM
IC50 (MSTO-211H): > 5000 nM
IC50 (DK-MG): > 5000 nM
IC50 (D-336MG): > 5000 nM
IC50 (EW-1): > 5000 nM
IC50 (MDA-MB-415): > 5000 nM

CN(c1ncccc1CNc1nc(Nc2ccc3c(c2)CC(=O)N3)ncc1C(F)(F)F)S(C)(=O)=O [PF-00562271]
IC50 (COR-L105): > 2560 nM
IC50 (CAMA-1): > 2560 nM
IC50 (LN-405): > 2560 nM
IC50 (BEN): > 2560 nM
IC50 (Mo): > 2560 nM
IC50 (BT-474): > 2560 nM
IC50 (Hs-578T): > 2560 nM
IC50 (EC-GI-10): > 2560 nM
IC50 (HSC-3): > 2560 nM
IC50 (RERF-LC-MS): > 2560 nM
IC50 (CAL-54): > 2560 nM
IC50 (HT-1376): > 2560 nM
IC50 (SK-MEL3): > 2560 nM
IC50 (C3A): > 2560 nM
IC50 (A673): > 2560 nM
IC50 (PANC-03-27): > 2560 nM
IC50 (NCI-H2030): > 2560 nM
IC50 (LU-99A): > 2560 nM
IC50 (SN12C): > 2560 nM
IC50 (COLO-679): > 2560 nM
IC50 (D-392MG): > 2560 nM
IC50 (C-33-A): > 2560 nM
IC50 (DMS-79): > 2560 nM
IC50 (A498): > 2560 nM
IC50 (NCI-H226): > 2560 nM
IC50 (CAL-27): > 2560 nM
IC50 (MDA-MB-361): > 2560 nM
IC50 (Calu-3): > 2560 nM
IC50 (no-10): > 2560 nM
IC50 (SW13): > 2560 nM
IC50 (NCI-H596): > 2560 nM
IC50 (8305C): 1100 nM
IC50 (HLE): > 2560 nM
IC50 (PC-14): > 2560 nM
IC50 (EKVX): > 2560 nM
IC50 (NCI-H2052): > 2560 nM
IC50 (SNB-75): > 2560 nM
IC50 (SW1088): > 2560 nM
IC50 (QIMR-WIL): > 2560 nM
IC50 (SW1417): > 2560 nM
IC50 (TGBC24TKB): > 2560 nM
IC50 (EW-24): > 2560 nM
IC50 (TCC-SUP): > 2560 nM
IC50 (SK-HEP1): > 2560 nM
IC50 (A-431): > 2560 nM
IC50 (MSTO-211H): > 2560 nM
IC50 (DK-MG): > 2560 nM
IC50 (D-336MG): 1860 nM
IC50 (EW-1): > 2560 nM
IC50 (MDA-MB-415): > 2560 nM
